Experimental data reported in ChEMBL document CHEMBL3638654, “5-HT3 receptor modulators, methods of making, and use thereof” (2015).
Several values for one entry are separate records, joined by “and”; a condition that tells them apart may be missing. Equal entries are not always repeated.

Biological target: T1, 5-hydroxytryptamine receptor 3A (Homo sapiens, UniProt P46098)
T1 sequence (P46098 whole entry): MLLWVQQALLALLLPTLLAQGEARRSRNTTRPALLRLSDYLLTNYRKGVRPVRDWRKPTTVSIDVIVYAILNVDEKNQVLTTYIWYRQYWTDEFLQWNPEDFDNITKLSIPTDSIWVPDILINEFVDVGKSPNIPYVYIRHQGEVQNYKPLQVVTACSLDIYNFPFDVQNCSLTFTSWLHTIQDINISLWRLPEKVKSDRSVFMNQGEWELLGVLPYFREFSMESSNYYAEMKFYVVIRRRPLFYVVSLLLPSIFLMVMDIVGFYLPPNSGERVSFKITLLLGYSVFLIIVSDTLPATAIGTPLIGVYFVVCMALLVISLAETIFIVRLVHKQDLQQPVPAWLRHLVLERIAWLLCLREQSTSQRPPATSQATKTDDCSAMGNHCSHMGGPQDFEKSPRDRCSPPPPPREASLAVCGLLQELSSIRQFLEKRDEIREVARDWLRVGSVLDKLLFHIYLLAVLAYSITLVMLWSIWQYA
Test: Radioligand Binding Assay: The relative affinity of the various compounds for the human 5-HT3 receptor was measured in a radioligand binding assay, using a scintillation proximity assay (SPA) format. Test compounds were dissolved to 10 mM in 100% DMSO, then serially diluted at 10x assay concentrations in 100% DMSO in 96-well polypropylene plates and further diluted to 4x assay concentrations with the assay buffer. Samples were incubated in 50 mM Tris-HCl, pH 7.5, 3 mM MgCl2, 1 mM EDTA and 10% DMSO with 10 nM [9-methyl-3H]BRL-43694 (Perkin Elmer), 3 ug of human 5-HT3 receptor membranes (Perkin Elmer) and 0.5 mg/mL SPA beads (WGA PVT, Amersham Biosciences) in a final volume of 0.2 mL. Binding reactions were set up in wells of PicoPlates-96 (Perkin Elmer) by adding consecutively 50 uL of each competing compound or buffer, SPA beads, the radioligand and 5-HT3 receptor membranes. After an overnight incubation at room temperature on a Nutator mixer, plates were centrifuged for 15 min at 1,500 rpm.

SMILES | Ki
O=C1c2cccc3[nH]nc(c23)CCN1CC1CN2CCC1CC2 (configuration not stated) | 579 nM and 241 nM
O=C1c2cccc3[nH]nc(c23)CN1CC1CN2CCC1CC2 (configuration not stated) | 217 nM and 24 nM
